Data from publication PMC3961628 (American Journal of Cardiovascular Drugs, 2013).
Like-named read-outs stand apart in the source and are kept apart here.

What was measured:
[1] = type: in vivo, healthy human subjects; conditions: for AUC(0-t) / AUC(0-inf) / Cmax: geometric mean (% CV); for AUC(0-inf): AUCINF; for Cmax: C max; for half-life: T ½
Safety assessments = type: in vivo, healthy human subjects
[2] = Stability of apixaban in human plasma; type: in vitro ADME; conditions: at −20 °C
[3] = cited from earlier work
[4] = single oral 20-mg radiolabeled dose; bile collected 3–8 h after dose; cited from earlier work
[5] = BDC rats, intravenous [14C]apixaban; cited from earlier work
[6] = BDC dogs, cited from earlier work
[7] = test system: major uptake transporters; conditions: cited from earlier work
[8] = cited from earlier work; remark: listed apart in the source
[9] = human, plasma, oral, 20 mg, Treatment A: apixaban 20 mg alone, n = 18
[10] = human, plasma, oral, Treatment B: apixaban 20 mg + activated charcoal 2 h after apixaban, n = 14
[11] = human, plasma, oral, Treatment C: apixaban 20 mg + activated charcoal 6 h after apixaban, n = 17
[12] = apixaban 2.5 mg solution released in the ascending colon
[13] = apixaban 2.5 mg solution released in the distal small bowel

COc1ccc(-n2nc(C(N)=O)c3c2C(=O)N(c2ccc(N4CCCCC4=O)cc2)CC3)cc1 [apixaban, 1-(4-methoxyphenyl)-7-oxo-6-(4-(2-oxopiperidin-1-yl)phenyl)-4,5,6,7-tetrahydro-1H-pyrazolo[3,4-c]pyridine-3-carboxamide]
T ½ ([1]; Treatment A: apixaban 20 mg alone, n = 18, mean (SD)): 13.4 (5.1) h
T max ([1]; Treatment C: apixaban 20 mg + activated charcoal 6 h after apixaban, n = 17, median (range)): 2.5 (1.5–4.0) h
Decrease in apixaban exposure (AUCINF) vs apixaban alone ([1]; activated charcoal administered at 2 h post-dose): 50%
Decrease in apixaban exposure (AUCINF) vs apixaban alone ([1]; activated charcoal administered at 6 h post-dose): 28%
Effect of activated charcoal on C max or T max of apixaban ([1]; charcoal at 2 or 6 h post-dose): no effect
Tmax ([1]; human, plasma, oral, 20 mg): 2.5 h
AUC(0-t) [1, 9]: 4080 ng·h/mL
AUC(0-inf) [1, 9]: 4180 ng·h/mL
Cmax [1, 9]: 380 ng/mL
AUC(0-t) ([1]; human, plasma, oral, Treatment B: apixaban 20 mg + activated charcoal 50 g 2 h after apixaban, n = 14): 2010 ng·h/mL
AUC(0-t) ([1]; human, plasma, oral, Treatment C: apixaban 20 mg + activated charcoal 50 g 6 h after apixaban, n = 17): 2950 ng·h/mL
AUC(0-inf) [1, 10]: 2030 ng·h/mL
AUC(0-inf) [1, 11]: 2980 ng·h/mL
Cmax [1, 10]: 366 ng/mL
Cmax [1, 11]: 383 ng/mL
half-life ([1]; human, plasma, oral, Treatment B: apixaban 20 mg + activated charcoal 2 h after apixaban, n = 14, mean (SD)): 5.3 h
half-life ([1]; human, plasma, oral, Treatment C: apixaban 20 mg + activated charcoal 6 h after apixaban, n = 17, mean (SD)): 4.9 h
Time for which mean plasma concentrations were quantifiable ([1]; single oral 20-mg dose without activated charcoal, LLOQ 1 ng/mL): up to 72 h
Proportion of subjects reporting adverse events (Safety assessments; apixaban 20 mg alone): 16.7%
Tolerability (Safety assessments; healthy subjects, single 20-mg doses): well tolerated
Stability in human plasma [2]: at least 864 days
Oral bioavailability ([3]; background statement): approximately 50%
Effect of food and changes in gastric pH on apixaban exposure [3]: no clinically relevant effect
Terminal half-life (T ½) [3]: approximately 12 h
Time to peak plasma concentration (C max) ([3]; oral administration, immediate-release tablet, background statement): approximately 3 h
Biliary excretion, share of total recovered radioactivity [4]: less than 3%
Dose found in feces [5]: 20–30 % of the dose
Dose found in feces ([6]; intravenous [14C]apixaban): 40–50 % of the dose
Effect of activated charcoal on fecal recovery and apparent systemic clearance [6]: increased fecal recovery and apparent systemic clearance
Substrate status for major uptake transporters [7]: not a substrate
AUC(0–T) lower than with oral administration [8, 12]: 84%
C max lower than with oral administration [8, 12]: 90%
AUC(0–T) lower than with oral administration [8, 13]: approximately 60%
C max lower than with oral administration [8, 13]: approximately 60%
